From US11111214B2 (priority 2013, dated 2021)

Assays:
[1] = molecular target: T1, recombinant human kappa (KOR) opioid receptor (Homo sapiens, UniProt P41145); test: biochemical; assay type: binding
T1 construct: expressed in transfected cells; host or cells: CHO-K1 cell membranes

[2] = molecular target: T2, recombinant human mu (MOR) opioid receptor (Homo sapiens, UniProt P35372); test: biochemical; assay type: binding; conditions: read-out: Mu receptor % inhibition at single concentration, % inhibition @ 10 μM
T2 construct: expressed in transfected cells; host or cells: CHO-K1 cell membranes
T2 sequence (P35372 whole entry): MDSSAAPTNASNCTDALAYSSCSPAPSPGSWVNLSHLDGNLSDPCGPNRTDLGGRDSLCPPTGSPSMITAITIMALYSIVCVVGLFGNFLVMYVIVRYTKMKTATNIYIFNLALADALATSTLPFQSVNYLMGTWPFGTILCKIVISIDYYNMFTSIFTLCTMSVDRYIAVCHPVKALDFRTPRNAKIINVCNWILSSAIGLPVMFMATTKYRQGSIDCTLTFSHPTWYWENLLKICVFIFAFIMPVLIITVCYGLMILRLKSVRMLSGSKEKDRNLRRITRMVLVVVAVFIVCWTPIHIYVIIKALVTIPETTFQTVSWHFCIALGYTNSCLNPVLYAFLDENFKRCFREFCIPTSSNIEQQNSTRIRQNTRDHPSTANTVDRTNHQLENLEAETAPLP

[3] = molecular target: T3, KOR (kappa opioid receptor) (Homo sapiens, UniProt P41145); test: cell-based
T3 construct: expressed in transfected cells; host or cells: CHO-K1 cells stably expressing KOR
T3 sequence (P41145 whole entry): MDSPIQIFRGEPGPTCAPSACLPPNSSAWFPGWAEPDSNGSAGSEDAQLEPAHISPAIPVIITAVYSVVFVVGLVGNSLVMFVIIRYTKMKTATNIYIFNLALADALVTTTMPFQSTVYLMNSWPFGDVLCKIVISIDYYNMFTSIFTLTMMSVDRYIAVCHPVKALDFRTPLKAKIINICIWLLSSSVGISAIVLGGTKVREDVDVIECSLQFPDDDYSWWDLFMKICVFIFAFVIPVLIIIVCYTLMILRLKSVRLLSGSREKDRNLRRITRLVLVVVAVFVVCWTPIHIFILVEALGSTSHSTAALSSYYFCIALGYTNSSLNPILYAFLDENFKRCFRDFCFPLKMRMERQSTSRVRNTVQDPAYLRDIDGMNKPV

[4] = not given; remark: listed apart in the source
in vitro [5] = conditions: rat, hepatocytes
in vitro [6] = conditions: human, hepatocytes

T1 sequence (P41145 whole entry): as above

Row | SMILES | IC50 [1] [nM] | Ki [1] [nM] | inhibition at 10 µM [2] [%] | EC50 [3] [nM] | In vitro Hepatocyte Clearance, Rat % hep Blood flow [%] | In vitro Hepatocyte Clearance, Human % hep Blood flow [4] [%] | CLhep predicted (in vitro [5]) [mL/min/kg] | CLhep predicted (in vitro [6]) [mL/min/kg]
1 | COCCOCCOCCOCCOCCNc1ccc([C@@H](CN2CCCC2)N(C)C(=O)Cc2ccc(Cl)c(Cl)c2)cc1 [compound 35, (S)—N-(1-(4-(2,5,8,11,14-pentaoxahexadecan-16-ylamino)phenyl)-2-(pyrrolidin-1-yl)ethyl)-2-(3,4-dichlorophenyl)-N-methylacetamide] | 24.7 | 5.7 | 30.6 | 2.59 | 44 | 65 | 26.5 | 15
2 | CN(C(=O)Cc1ccc(Cl)c(Cl)c1)[C@H](CN1CCCC1)c1ccc(OCCO)cc1.Cl [compound 36, (S)-2-(3,4-dichlorophenyl)-N-(1-(4-(2-hydroxyethoxy)phenyl)-2-(pyrrolidin-1-yl)ethyl)-N-methylacetamide] | 0.43 | 0.1 | 64.9 | 0.029 | 24 | 71 | 14.3 | 16.5
3 | COCCOCCOCCO[C@H]1CCN(C[C@H](c2ccc(OCCO)cc2)N(C)C(=O)Cc2ccc(Cl)c(Cl)c2)C1 [compound 37, 2-(3,4-Dichlorophenyl)-N-{(1S)-1-[4-(2-hydroxyethoxy)phenyl]-2-[(3S)-3-{2-[2-(2-methoxyethoxy)ethoxy]ethoxy}pyrrolidin-1-yl]ethyl}-N-methylacetamide] | 98.1 | 22.6 | 57.8 | 4.15 | – | – | – | –
4 | CN(C(=O)Cc1ccc(Cl)c(Cl)c1)[C@H](CN1CC[C@H](O)C1)c1ccc(OCCO)cc1 [compound 38, 2-(3,4-dichlorophenyl)-N—((S)-1-(4-(2-hydroxyethoxy)phenyl)-2-((S)-3-hydroxypyrrolidin-1-yl)ethyl)-N-methylacetamide] | 0.49 | 0.06 | 87.2 | 0.03 | – | – | – | –
5 | COCCOCCOCCOCCOCCN1CCN(C[C@H](c2ccccc2)N(C)C(=O)Cc2ccc(Cl)c(Cl)c2)CC1 [compound 39, (S)—N-(2-(4-(2,5,8,11,14-pentaoxahexadecan-16-yl)piperazin-1-yl)-1-phenylethyl)-2-(3,4-dichlorophenyl)-N-methylacetamide] | 18500 | 4270 | 9.6 | 1950 | – | – | – | –
6 | COCCOCCOCCOCCOCCOCCOCCOC(=O)N[C@H](C(=O)Nc1cccc([C@@H](CN2CC[C@H](O)C2)N(C)C(=O)Cc2ccc(Cl)c(Cl)c2)c1)C(C)C [compound 48, N-(3-{(1S)-1-{[(3,4-Dichlorophenyl)acetyl](methyl)amino}-2-[(3S)-3-hydroxypyrrolidin-1-yl]ethyl}phenyl)-N^2-2,5,8,11,14,17,20,23-octaoxatetracosan-1-oylvalinamide] | 3.48 | 0.8 | 73.2 | 0.43 | – | – | – | –
7 | COCCOCCOCCOCCOCCOCCOCCOC(=O)NC1(C(=O)Nc2cccc([C@@H](CN3CC[C@H](O)C3)N(C)C(=O)Cc3ccc(Cl)c(Cl)c3)c2)CC1 [compound 49, 2,5,8,11,14,17,20-Heptaoxadocosan-22-yl {1-[(3-{(1S)-1-{[(3,4dichlorophenyl)acetyl](methyl)amino}-2-[(3S)-3-hydroxypyrrolidin-1yl]ethyl}phenyl)carbamoyl]cyclopropyl}carbamate] | 1.61 | 0.37 | 78.1 | 0.11 | – | – | – | –
8 | COCCOCC(=O)Nc1cccc([C@@H](CN2CC[C@H](O)C2)N(C)C(=O)Cc2ccc(Cl)c(Cl)c2)c1 [compound 50, 2-(3,4-dichlorophenyl)-N-[(1S)-2-[(3S)-3-hydroxypyrrolidin-1-yl]-1-(3-{[(2-methoxyethoxy)acetyl]amino}phenyl)ethyl]-N-methylacetamide] | 0.52 | 0.12 | 101 | 0.06 | – | – | – | –
9 | CN(C(=O)C(c1ccccc1)c1ccccc1)[C@H](CN1CCCC1)c1cccc(N)c1 [compound 51, (S)—N-Methyl-N-(1-(3-aminophenyl)-2-(pyrrolidin-1-yl)ethyl)-2,2-diphenylacetamide] | 62.2 | 14.3 | 54.5 | 5.18 | – | – | – | –
